Data published in US20240390295A1, “METHODS FOR TREATING DEPRESSION” (JANSSEN PHARMACEUTICA NV, priority 2020, published 2024).

Test system: adult patients (aged 18-64 years) with TRD
Test: Measure-based increased blood pressure (abnormal elevation in BP)
Assay type: in vivo, human
Method: Vital signs, the Clinician-Administered Dissociative States Scale (CADSS), and the Modified Observer's Assessment of Alertness/Sedation (MOAA/S) were assessed at baseline and all treatment sessions (predose, and at 40 minutes, 1 hour [vital signs only unless spontaneously reported by the patient], and 1.5 hours postdose). Routine blood pressure (BP) readings were conducted at each treatment session, with elevations reported as AEs based on the clinician's judgement. The CADSS assessed treatment-emergent dissociative symptoms and consists of 23 questions, each coded on a 5-point scale (0=not at all, 1-mild, 2-moderate, 3=severe, 4-extreme), yielding a total score 0-92.11 A CADSS total score >4 indicated the presence of dissociative symptoms. The MOAA/S assessed treatment-emergent sedation: scores range from (=no response to painful stimulus to 5=readily responds to name spoken in normal tone. Any decrease in MOAA/s from pre-dose (score <5) indicated some degree of sedation. An abnormal elevation in BP was defined as systolic BP ≥180 mmHg and ≥20 mmHg higher than baseline and/or diastolic BP ≥105 mmHg and ≥15 mmHg greater than baseline.
This analysis included any treatment sessions in which patients received ESK (either open-label or blinded). The occurrence and severity of AEs were assessed within the following timeframes: Month 1 (Week 1 and Weeks 2-4), Month 2 (Weeks 5-8), Months 3-6 and Months 6-12. Severity of clinician-reported AEs were scored as 0 (no AE), 1 (mild), 2 (moderate), and 3 (severe). To examine AEs in individual patients over time, only patients who received at least one ESK dose in the following period were included in the analyses of each respective period. Thus, patient data were retained in (i) Week 1 if the patient received ≥1 ESK dose in Weeks 2-4, (ii) Weeks 2-4 if the patient received ≥1 ESK dose in Weeks 5-8, (iii) Weeks 5-8 if the patient received ≥1 ESK dose in Months 3-6, and (iv) Months 3-6 if the patient received ≥1 ESK dose in Months 6-12.

CN[C@]1(c2ccccc2Cl)CCCCC1=O [esketamine, (S)-2-(2-chlorophenyl)-2-(methylamino)cyclohexanone]
Measured-based increased blood pressure (Months 3-6, AE once in Week 1): 6.3%
Measured-based increased blood pressure (Months 3-6, AE twice in Week 1): 33.3%
Measured-based increased blood pressure (Months 3-6, No AE in Week 1): 2.4%
Measured-based increased blood pressure (Months 3-6, overall rate for timeframe): 2.7%
Measured-based increased blood pressure (Months 6-12, AE once in Week 1): 6.3%
Measured-based increased blood pressure (Months 6-12, AE twice in Week 1): 0%
Measured-based increased blood pressure (Months 6-12, No AE in Week 1): 3.1%
Measured-based increased blood pressure (Months 6-12, overall rate for timeframe): 3.2%
Measured-based increased blood pressure (Week 1, overall rate for timeframe): 3.6%
Measured-based increased blood pressure (Weeks 2-4, AE once in Week 1): 35.7%
Measured-based increased blood pressure (Weeks 2-4, AE twice in Week 1): 80.0%
Measured-based increased blood pressure (Weeks 2-4, No AE in Week 1): 3.4%
Measured-based increased blood pressure (Weeks 2-4, overall rate for timeframe): 4.7%
Measured-based increased blood pressure (Weeks 5-8, AE once in Week 1): 17.9%
Measured-based increased blood pressure (Weeks 5-8, AE twice in Week 1): 60.0%
Measured-based increased blood pressure (Weeks 5-8, No AE in Week 1): 2.6%
Measured-based increased blood pressure (Weeks 5-8, overall rate for timeframe): 3.4%
